The NIST ThermoML archive (doi:10.1016/j.jct.2019.03.040)
Numbers after ± are expanded uncertainties.

Assays:
[1] = Liquid; for thermal diffusivity: 101.33 kPa, Laser flash apparatus
[2] = molar heat capacity at constant pressure; settings: 101.33 kPa, Liquid, Small sample (50 mg) DSC

COC(=O)CCC(C)=O [methyl levulinate]
Settings	Critical pressure [kPa]	Critical temperature [K]	molar heat capacity at constant pressure [J/K/mol]	thermal diffusivity [m2/s]
[1], 303.15 K	–	–	–	8e-08 ± 4.3e-09
[1], 313.15 K	–	–	–	7.9e-08 ± 4.2e-09
[1], 323.15 K	–	–	–	7.85e-08 ± 4.2e-09
[1], 333.15 K	–	–	–	7.7e-08 ± 4.1e-09
[1], 343.15 K	–	–	–	7.6e-08 ± 4.1e-09
[1], 353.15 K	–	–	–	7.5e-08 ± 4e-09
[1], 363.15 K	–	–	–	7.35e-08 ± 3.9e-09
[1], 373.15 K	–	–	–	7.25e-08 ± 3.9e-09
[1], Resistive pulse heating	3270 ± 100	668 ± 7	–	–
[2], 302.68 K	–	–	258.85 ± 6.4	–
[2], 303.18 K	–	–	259.11 ± 6.4	–
[2], 303.68 K	–	–	258.98 ± 6.4	–
[2], 304.18 K	–	–	259.24 ± 6.4	–
[2], 304.68 K	–	–	258.98 ± 6.4	–
[2], 305.18 K	–	–	258.72 ± 6.4	–
[2], 305.68 K	–	–	259.11 ± 6.4	–
[2], 306.18 K	–	–	258.85 ± 6.4	–
[2], 306.68 K	–	–	258.98 ± 6.4	–
[2], 307.18 K	–	–	259.5 ± 6.4	–
[2], 307.68 K	–	–	259.63 ± 6.4	–
[2], 308.18 K	–	–	259.89 ± 6.4	–
[2], 308.68 K	–	–	260.15 ± 6.4	–
[2], 309.18 K	–	–	259.89 ± 6.4	–
[2], 309.68 K	–	–	259.63 ± 6.4	–
[2], 310.18 K	–	–	259.76 ± 6.4	–
[2], 310.68 K	–	–	259.37 ± 6.4	–
[2], 311.18 K	–	–	259.37 ± 6.4	–
[2], 311.68 K	–	–	259.5 ± 6.4	–
[2], 312.18 K	–	–	259.76 ± 6.4	–
[2], 312.68 K	–	–	259.89 ± 6.4	–
[2], 313.18 K	–	–	259.76 ± 6.4	–
[2], 313.68 K	–	–	260.15 ± 6.4	–
[2], 314.18 K	–	–	260.02 ± 6.4	–
[2], 314.68 K	–	–	260.54 ± 6.4	–
[2], 315.18 K	–	–	260.15 ± 6.4	–
[2], 315.68 K	–	–	260.02 ± 6.4	–
[2], 316.18 K	–	–	259.89 ± 6.4	–
[2], 316.68 K	–	–	260.8 ± 6.4	–
[2], 317.18 K	–	–	260.93 ± 6.4	–
[2], 317.68 K	–	–	260.8 ± 6.4	–
[2], 318.18 K	–	–	261.06 ± 6.4	–
[2], 318.68 K	–	–	261.06 ± 6.4	–
[2], 319.18 K	–	–	261.19 ± 6.4	–
[2], 319.68 K	–	–	261.06 ± 6.4	–
[2], 320.18 K	–	–	260.93 ± 6.4	–
[2], 320.68 K	–	–	261.06 ± 6.4	–
[2], 321.18 K	–	–	261.19 ± 6.4	–
[2], 321.68 K	–	–	261.32 ± 6.4	–
[2], 322.18 K	–	–	261.06 ± 6.4	–
[2], 322.68 K	–	–	260.8 ± 6.4	–
[2], 323.18 K	–	–	261.32 ± 6.4	–
[2], 323.68 K	–	–	261.32 ± 6.4	–
[2], 324.18 K	–	–	261.45 ± 6.4	–
[2], 324.68 K	–	–	261.72 ± 6.4	–
[2], 325.18 K	–	–	261.59 ± 6.4	–
[2], 325.68 K	–	–	261.85 ± 6.4	–
[2], 326.18 K	–	–	261.98 ± 6.4	–
[2], 326.68 K	–	–	262.11 ± 6.4	–
[2], 327.18 K	–	–	262.11 ± 6.4	–
[2], 327.68 K	–	–	262.24 ± 6.4	–
[2], 328.18 K	–	–	262.37 ± 6.4	–
[2], 328.68 K	–	–	262.63 ± 6.4	–
[2], 329.18 K	–	–	262.76 ± 6.4	–
[2], 329.68 K	–	–	262.63 ± 6.4	–
[2], 330.18 K	–	–	262.63 ± 6.4	–
[2], 330.68 K	–	–	263.02 ± 6.5	–
[2], 331.18 K	–	–	263.15 ± 6.5	–
[2], 331.68 K	–	–	263.15 ± 6.5	–
[2], 332.18 K	–	–	263.93 ± 6.5	–
[2], 332.68 K	–	–	263.8 ± 6.5	–
[2], 333.18 K	–	–	264.06 ± 6.5	–
[2], 333.68 K	–	–	263.93 ± 6.5	–
[2], 334.18 K	–	–	264.06 ± 6.5	–
[2], 334.68 K	–	–	264.45 ± 6.5	–
[2], 335.18 K	–	–	264.45 ± 6.5	–
[2], 335.68 K	–	–	264.19 ± 6.5	–
[2], 336.18 K	–	–	264.19 ± 6.5	–
[2], 336.68 K	–	–	264.58 ± 6.5	–
[2], 337.18 K	–	–	264.45 ± 6.5	–
[2], 337.68 K	–	–	264.32 ± 6.5	–
[2], 338.18 K	–	–	264.45 ± 6.5	–
[2], 338.68 K	–	–	264.45 ± 6.5	–
[2], 339.18 K	–	–	265.1 ± 6.5	–
[2], 339.68 K	–	–	265.36 ± 6.5	–
[2], 340.18 K	–	–	264.97 ± 6.5	–
[2], 340.68 K	–	–	264.84 ± 6.5	–
[2], 341.18 K	–	–	264.97 ± 6.5	–
[2], 341.68 K	–	–	265.49 ± 6.5	–
[2], 342.18 K	–	–	265.49 ± 6.5	–
[2], 342.68 K	–	–	265.62 ± 6.5	–
[2], 343.18 K	–	–	265.75 ± 6.5	–
[2], 343.68 K	–	–	266.01 ± 6.5	–
[2], 344.18 K	–	–	266.4 ± 6.5	–
[2], 344.68 K	–	–	266.27 ± 6.5	–
[2], 345.18 K	–	–	266.27 ± 6.5	–
[2], 345.68 K	–	–	266.4 ± 6.5	–
[2], 346.18 K	–	–	266.79 ± 6.5	–
[2], 346.68 K	–	–	266.4 ± 6.5	–
[2], 347.18 K	–	–	266.79 ± 6.5	–
[2], 347.68 K	–	–	266.66 ± 6.5	–
[2], 348.18 K	–	–	266.92 ± 6.5	–
[2], 348.68 K	–	–	267.31 ± 6.5	–
[2], 349.18 K	–	–	266.92 ± 6.5	–
[2], 349.68 K	–	–	267.18 ± 6.5	–
[2], 350.18 K	–	–	267.7 ± 6.5	–
[2], 350.68 K	–	–	267.7 ± 6.5	–
[2], 351.18 K	–	–	268.09 ± 6.5	–
[2], 351.68 K	–	–	268.09 ± 6.5	–
[2], 352.18 K	–	–	267.96 ± 6.5	–
[2], 352.68 K	–	–	268.48 ± 6.6	–
[2], 353.18 K	–	–	268.61 ± 6.6	–
[2], 353.68 K	–	–	268.61 ± 6.6	–
[2], 354.18 K	–	–	268.48 ± 6.6	–
[2], 354.68 K	–	–	268.48 ± 6.6	–
[2], 355.18 K	–	–	268.87 ± 6.6	–
[2], 355.68 K	–	–	268.87 ± 6.6	–
[2], 356.18 K	–	–	268.87 ± 6.6	–
[2], 356.68 K	–	–	269.13 ± 6.6	–
[2], 357.18 K	–	–	269.39 ± 6.6	–
[2], 357.68 K	–	–	269.78 ± 6.6	–
[2], 358.18 K	–	–	269.91 ± 6.6	–
[2], 358.68 K	–	–	269.65 ± 6.6	–
[2], 359.18 K	–	–	270.17 ± 6.6	–
[2], 359.68 K	–	–	270.3 ± 6.6	–
[2], 360.18 K	–	–	270.56 ± 6.6	–
[2], 360.68 K	–	–	270.83 ± 6.6	–
[2], 361.18 K	–	–	270.96 ± 6.6	–
[2], 361.68 K	–	–	270.56 ± 6.6	–
[2], 362.18 K	–	–	270.56 ± 6.6	–
[2], 362.68 K	–	–	270.56 ± 6.6	–
[2], 363.18 K	–	–	271.09 ± 6.6	–
[2], 363.68 K	–	–	270.96 ± 6.6	–
[2], 364.18 K	–	–	271.22 ± 6.6	–
[2], 364.68 K	–	–	271.48 ± 6.6	–
[2], 365.18 K	–	–	271.74 ± 6.6	–
[2], 365.68 K	–	–	271.74 ± 6.6	–
[2], 366.18 K	–	–	271.87 ± 6.6	–
[2], 366.68 K	–	–	271.87 ± 6.6	–
[2], 367.18 K	–	–	271.87 ± 6.6	–
[2], 367.68 K	–	–	272.39 ± 6.6	–
[2], 368.18 K	–	–	272.52 ± 6.6	–
[2], 368.68 K	–	–	272.65 ± 6.6	–
[2], 369.18 K	–	–	273.04 ± 6.6	–
[2], 369.68 K	–	–	273.04 ± 6.6	–
[2], 370.18 K	–	–	272.78 ± 6.6	–
[2], 370.68 K	–	–	272.91 ± 6.6	–
[2], 371.18 K	–	–	273.3 ± 6.6	–
[2], 371.68 K	–	–	273.56 ± 6.6	–
[2], 372.18 K	–	–	273.56 ± 6.6	–
[2], 372.68 K	–	–	273.56 ± 6.6	–
[2], 373.18 K	–	–	273.82 ± 6.8	–
[2], 373.68 K	–	–	273.69 ± 6.8	–
